Columns and labels:
MDA-MB-231 = assay: CCK-8 cell proliferation/cytotoxicity assay; format: cell-based; conditions: Homo sapiens, MDA-MB-231, 24 h
HepG2 cells [1] = assay: Transwell migration and invasion assay; format: cell-based, human; conditions: HepG2, dose-dependent
Procedure: For the migration assay, HepG2 cells were seeded into the upper Transwell chamber at a density of 2 × 10^4 cells and incubated for 24 h. For the invasion assay, 100 μL of Matrigel: serum-free media (1:4) mixture was placed on the filter membrane in the upper chamber and incubated (37 °C, 4 h) to seed cells. Cells were exposed to MBP-11901 and sorafenib for 2 h. Then, the medium in the upper chamber was changed to serum-free medium, whereas the medium in the lower chamber was changed to a medium containing 10% FBS. The medium was replaced once every 2–3 d. Following 6 d incubation, the upper surfaces of the filters were scraped 5 times with cotton swabs to remove nonmigrated cells, whereas cells crossing the membrane into the lower chamber were stained with 1% (w/v) crystal violet for 30 min. Crystal violet was removed and cells were washed with tap water. For the migration assay, after drying at 25 °C, 10% acetic acid solution was added to cells, and left to react in a shaker for 30 min. Absorbance was measured at 590 nm using a microplate reader (SpectraMax i3, Molecular Devices). For the invasion assay, the number of migrated cells was counted.

HepG2 cells [2] = assay: Colony formation assay; format: cell-based, human
Procedure: HepG2 cells were seeded in a 6-well plate at a density of 2 × 10^4 cells/well and incubated for 24 h. Cells were treated with MBP-11901 and sorafenib for 2 h and media was changed with fresh one. Cells were incubated for 8 d and the medium was replaced once every 2–3 d. The medium was carefully removed, cells were washed with PBS, and fixed with 100% methanol for 30 min. After removing methanol, cells were stained with 0.5% (w/v) crystal violet for 30 min, and washed with tap water. The plate was dried at 25 °C and images were captured under a microscope (Nikon Eclipse Ts2, Tokyo, Japan). The stained area was automatically measured using ImageJ. This experiment was independently performed 3 times. The area of the colony was calculated as a percentage of the total area of the well.

HepG2 cells [3] = assay: JC-1 mitochondrial membrane potential assay; format: cell-based, human
Procedure: Alterations in MMP were investigated utilizing the cationic dye tetraethylbenzimidazolylcarbocyanine iodide (JC-1) according to the manufacturer’s instructions (Cat. ab113850, Abcam, Cambridge, MA, USA). HepG2 cells were seeded in a 35 mm^2 dish at a density of 7.5 × 10^5 cells/dish and incubated for 24 h. Cells were treated with MBP-11901 for 2 h and media was changed with fresh one. Briefly, after 2 d incubation, cells were washed with 1× dilution buffer, and incubated with 1 μM JC-1 in 1× dilution buffer for 30 min at 37 °C. Cells were then washed 3 times with 1× dilution buffer. Fluorescence was measured under a fluorescence microscope (ECLIPSE Ti, Nikon, Melville, NY, USA) using an excitation filter of 530 nm ± 15 nm and an emission filter of 590 nm ± 17.5 nm.

Hep3B xenograft tumor = assay: Hep3B subcutaneous xenograft; format: in vivo, mouse; conditions: once every 2 d, 12 administrations
Source text: We further verified the effectiveness of MBP-11901 by constructing a mouse model in which Hep3B and Huh-7 were subcutaneously transplanted in addition to the human liver cancer cell line HepG2. In the case of Hep3B, the administration was initiated at a tumor volume of about 300 mm^3, once every 2 d, and the experiment was terminated after a total of 12 administrations (Figure S5). […] In contrast, tumors had completely disappeared in 1 out of 6 animals in the MBP-11901 group; 1 had only a trace of a tumor measuring approximately 30 mm^3, whereas the average tumor volume in the 6 animals was approximately 100 mm^3. […] Unlike Nexavar®, there were no side-effects relating to drug resistance or rapid tumor growth.

FLT3(D835H) = biological target: T1, FLT3(D835H) (Homo sapiens, UniProt P36888, D835H); assay: KINOMEscan competition binding; conditions: 10000 nM; lower = stronger binding; read-out: % Control
T1 construct: purchased Eurofins DiscoverX Corporation
Procedure: (§1) The profiling of MBP-11901 against a panel of 468 kinases was performed by DiscoverX using KINOMEscan technology, an active-site-dependent competition-binding assay (Eurofins DiscoverX Corporation, San Diego, CA, USA). Binding constants (Kd) were calculated by DiscoverX using KdELECT technology, a widely used assay for comparing selectivity across the kinome. The DiscoverX platform reports the thermodynamic Kd to facilitate direct comparison of inhibitor affinity across the kinome, independent of ATP concentration.

FLT3(D835V) = biological target: T2, FLT3(D835V) (Homo sapiens, UniProt P36888, D835V); assay: KINOMEscan competition binding; conditions: 10000 nM; lower = stronger binding; read-out: % Control
T2 construct: purchased Eurofins DiscoverX Corporation
Procedure: as §1

FLT3(D835Y) = biological target: T3, FLT3(D835Y) (Homo sapiens, UniProt P36888, D835Y); assay: KINOMEscan competition binding; conditions: 10000 nM; lower = stronger binding; read-out: % Control
T3 construct: purchased Eurofins DiscoverX Corporation
Procedure: as §1

FLT3(K663Q) = biological target: T4, FLT3(K663Q) (Homo sapiens, UniProt P36888, K663Q); assay: KINOMEscan competition binding; conditions: 10000 nM; lower = stronger binding; read-out: % Control
T4 construct: purchased Eurofins DiscoverX Corporation
Procedure: as §1

FLT3(N841I) = biological target: T5, FLT3(N841I) (Homo sapiens, UniProt P36888, N841I); assay: KINOMEscan competition binding; conditions: 10000 nM; lower = stronger binding; read-out: % Control
T5 construct: purchased Eurofins DiscoverX Corporation
Procedure: as §1

FLT3- autoinhibited = biological target: T6, FLT3- autoinhibited (Homo sapiens, UniProt P36888); assay: KINOMEscan competition binding; conditions: 10000 nM; lower = stronger binding; read-out: % Control
T6 construct: purchased Eurofins DiscoverX Corporation
Procedure: as §1

FLT3 = biological target: T7, FLT3 (Homo sapiens, UniProt P36888); assay: KINOMEscan competition binding / KdELECT
T7 construct: purchased Eurofins DiscoverX Corporation
Procedure: as §1

MAP4K2 = biological target: T8, MAP4K2 (Homo sapiens, UniProt Q12851); assay: KINOMEscan competition binding / KdELECT
T8 construct: purchased Eurofins DiscoverX Corporation
T8 sequence (Q12851 whole entry): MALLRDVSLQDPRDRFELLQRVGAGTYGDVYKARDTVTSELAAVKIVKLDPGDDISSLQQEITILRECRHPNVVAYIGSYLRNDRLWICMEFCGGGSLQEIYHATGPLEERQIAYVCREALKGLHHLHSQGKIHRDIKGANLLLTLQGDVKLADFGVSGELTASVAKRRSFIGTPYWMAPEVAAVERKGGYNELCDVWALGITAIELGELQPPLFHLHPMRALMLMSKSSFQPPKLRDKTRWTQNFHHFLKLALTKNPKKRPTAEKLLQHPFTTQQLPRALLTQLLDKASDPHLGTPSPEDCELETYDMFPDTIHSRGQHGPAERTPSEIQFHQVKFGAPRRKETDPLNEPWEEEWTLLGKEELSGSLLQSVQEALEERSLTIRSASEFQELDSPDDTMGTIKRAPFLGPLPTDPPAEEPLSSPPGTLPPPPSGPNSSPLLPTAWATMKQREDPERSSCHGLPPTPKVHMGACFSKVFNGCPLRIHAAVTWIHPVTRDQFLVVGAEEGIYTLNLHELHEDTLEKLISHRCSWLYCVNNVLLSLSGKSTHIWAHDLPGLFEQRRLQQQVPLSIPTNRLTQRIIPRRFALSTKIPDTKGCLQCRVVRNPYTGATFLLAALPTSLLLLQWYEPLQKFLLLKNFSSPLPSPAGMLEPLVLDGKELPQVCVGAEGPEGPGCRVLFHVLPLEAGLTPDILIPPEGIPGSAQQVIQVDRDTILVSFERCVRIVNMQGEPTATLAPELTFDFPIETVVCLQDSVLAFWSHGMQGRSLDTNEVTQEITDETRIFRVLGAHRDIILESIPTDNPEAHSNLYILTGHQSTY
Procedure: as §1

MEK5 = biological target: T9, MEK5 (Homo sapiens, UniProt Q13163); assay: KINOMEscan competition binding / KdELECT
T9 construct: purchased Eurofins DiscoverX Corporation
T9 sequence (Q13163 whole entry): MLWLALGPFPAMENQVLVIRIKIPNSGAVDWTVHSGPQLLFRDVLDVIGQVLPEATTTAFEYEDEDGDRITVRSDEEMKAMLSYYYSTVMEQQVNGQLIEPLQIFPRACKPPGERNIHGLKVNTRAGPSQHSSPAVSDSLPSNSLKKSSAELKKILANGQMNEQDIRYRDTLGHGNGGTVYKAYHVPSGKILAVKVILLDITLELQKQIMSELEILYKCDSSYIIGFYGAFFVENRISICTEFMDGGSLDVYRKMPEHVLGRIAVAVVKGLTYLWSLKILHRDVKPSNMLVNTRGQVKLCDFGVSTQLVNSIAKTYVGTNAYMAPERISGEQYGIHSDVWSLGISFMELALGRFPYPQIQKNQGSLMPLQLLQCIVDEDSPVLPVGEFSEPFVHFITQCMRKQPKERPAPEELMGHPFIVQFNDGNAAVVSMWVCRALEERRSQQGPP
Procedure: as §1

PDGFRβ = biological target: T10, PDGFRβ (Homo sapiens, UniProt P09619); assay: KINOMEscan competition binding / KdELECT
T10 construct: purchased Eurofins DiscoverX Corporation
T10 sequence (P09619 33-1106): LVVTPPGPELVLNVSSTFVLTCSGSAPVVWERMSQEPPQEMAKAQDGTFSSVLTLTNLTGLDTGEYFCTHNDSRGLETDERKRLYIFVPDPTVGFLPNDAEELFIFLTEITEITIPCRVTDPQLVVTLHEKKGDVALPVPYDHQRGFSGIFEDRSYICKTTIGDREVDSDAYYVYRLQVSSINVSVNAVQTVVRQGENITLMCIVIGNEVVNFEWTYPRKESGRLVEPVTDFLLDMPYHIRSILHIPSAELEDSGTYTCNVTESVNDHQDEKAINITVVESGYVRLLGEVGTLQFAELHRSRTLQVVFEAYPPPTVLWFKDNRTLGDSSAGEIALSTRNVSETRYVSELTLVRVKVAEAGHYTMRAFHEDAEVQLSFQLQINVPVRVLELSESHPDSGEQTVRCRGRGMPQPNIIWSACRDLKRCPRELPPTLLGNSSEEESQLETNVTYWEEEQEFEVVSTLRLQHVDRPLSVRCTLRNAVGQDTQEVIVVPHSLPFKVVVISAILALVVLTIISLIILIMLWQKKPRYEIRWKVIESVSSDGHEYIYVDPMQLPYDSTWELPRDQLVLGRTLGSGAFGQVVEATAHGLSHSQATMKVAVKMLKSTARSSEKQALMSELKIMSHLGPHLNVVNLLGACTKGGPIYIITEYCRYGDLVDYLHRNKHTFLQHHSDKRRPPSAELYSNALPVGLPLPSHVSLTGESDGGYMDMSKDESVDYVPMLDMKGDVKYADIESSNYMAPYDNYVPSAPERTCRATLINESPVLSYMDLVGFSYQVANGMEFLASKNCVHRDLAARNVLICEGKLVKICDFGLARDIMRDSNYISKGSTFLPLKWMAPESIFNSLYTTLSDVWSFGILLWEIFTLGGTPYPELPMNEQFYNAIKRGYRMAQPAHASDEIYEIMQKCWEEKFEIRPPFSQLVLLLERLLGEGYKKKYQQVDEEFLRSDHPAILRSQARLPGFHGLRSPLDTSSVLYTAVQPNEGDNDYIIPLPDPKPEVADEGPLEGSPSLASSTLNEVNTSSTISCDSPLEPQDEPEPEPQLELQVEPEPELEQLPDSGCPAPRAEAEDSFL
Procedure: as §1

VEGFR2 = biological target: T11, VEGFR2 (Homo sapiens, UniProt P35968); assay: KINOMEscan competition binding / KdELECT
T11 construct: purchased Eurofins DiscoverX Corporation
T11 sequence (P35968 20-1356): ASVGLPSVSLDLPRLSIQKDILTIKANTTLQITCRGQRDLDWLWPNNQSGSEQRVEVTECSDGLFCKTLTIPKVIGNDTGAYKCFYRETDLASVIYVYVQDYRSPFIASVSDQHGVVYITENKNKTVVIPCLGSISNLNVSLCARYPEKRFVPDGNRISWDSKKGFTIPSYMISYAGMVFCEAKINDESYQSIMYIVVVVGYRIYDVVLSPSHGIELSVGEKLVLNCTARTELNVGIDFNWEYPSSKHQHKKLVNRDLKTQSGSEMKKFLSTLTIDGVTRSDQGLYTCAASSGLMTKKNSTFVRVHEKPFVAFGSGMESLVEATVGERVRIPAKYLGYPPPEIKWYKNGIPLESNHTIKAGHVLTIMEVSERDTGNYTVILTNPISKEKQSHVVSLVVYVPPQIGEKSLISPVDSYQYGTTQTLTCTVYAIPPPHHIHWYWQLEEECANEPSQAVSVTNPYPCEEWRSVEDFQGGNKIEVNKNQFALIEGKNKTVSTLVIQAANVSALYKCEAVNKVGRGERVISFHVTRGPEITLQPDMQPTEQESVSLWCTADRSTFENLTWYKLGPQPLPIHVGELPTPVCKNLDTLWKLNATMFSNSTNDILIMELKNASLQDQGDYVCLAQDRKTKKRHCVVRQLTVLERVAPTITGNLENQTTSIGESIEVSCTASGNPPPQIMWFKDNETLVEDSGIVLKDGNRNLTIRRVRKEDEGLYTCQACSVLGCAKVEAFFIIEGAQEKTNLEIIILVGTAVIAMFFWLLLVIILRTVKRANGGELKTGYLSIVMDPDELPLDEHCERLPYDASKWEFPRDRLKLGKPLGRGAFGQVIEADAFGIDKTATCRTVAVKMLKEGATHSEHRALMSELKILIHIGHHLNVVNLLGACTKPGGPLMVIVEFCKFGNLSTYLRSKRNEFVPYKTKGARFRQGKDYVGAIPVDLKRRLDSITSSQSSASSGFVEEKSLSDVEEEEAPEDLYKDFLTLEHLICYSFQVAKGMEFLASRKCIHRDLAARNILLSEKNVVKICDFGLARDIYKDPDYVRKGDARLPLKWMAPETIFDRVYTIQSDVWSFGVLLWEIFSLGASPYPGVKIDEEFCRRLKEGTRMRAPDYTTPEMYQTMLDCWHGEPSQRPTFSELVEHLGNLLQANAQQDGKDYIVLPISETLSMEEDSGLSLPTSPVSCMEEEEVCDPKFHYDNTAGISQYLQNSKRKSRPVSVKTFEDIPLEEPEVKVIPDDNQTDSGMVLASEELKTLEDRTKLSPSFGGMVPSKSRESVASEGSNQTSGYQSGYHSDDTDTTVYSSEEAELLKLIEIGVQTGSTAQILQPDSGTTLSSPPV
Procedure: as §1

EGFR = biological target: T12, EGFR (Homo sapiens, UniProt P00533); assay: KdELECT binding constant
T12 construct: purchased Eurofins DiscoverX Corporation
Procedure: as §1

FGFR1 = biological target: T13, FGFR1 (Homo sapiens, UniProt P11362); assay: KdELECT binding constant
T13 construct: purchased Eurofins DiscoverX Corporation
Procedure: as §1

FGFR2 = biological target: T14, FGFR2 (Homo sapiens, UniProt P21802); assay: KdELECT binding constant
T14 construct: purchased Eurofins DiscoverX Corporation
T14 sequence (P21802 22-821): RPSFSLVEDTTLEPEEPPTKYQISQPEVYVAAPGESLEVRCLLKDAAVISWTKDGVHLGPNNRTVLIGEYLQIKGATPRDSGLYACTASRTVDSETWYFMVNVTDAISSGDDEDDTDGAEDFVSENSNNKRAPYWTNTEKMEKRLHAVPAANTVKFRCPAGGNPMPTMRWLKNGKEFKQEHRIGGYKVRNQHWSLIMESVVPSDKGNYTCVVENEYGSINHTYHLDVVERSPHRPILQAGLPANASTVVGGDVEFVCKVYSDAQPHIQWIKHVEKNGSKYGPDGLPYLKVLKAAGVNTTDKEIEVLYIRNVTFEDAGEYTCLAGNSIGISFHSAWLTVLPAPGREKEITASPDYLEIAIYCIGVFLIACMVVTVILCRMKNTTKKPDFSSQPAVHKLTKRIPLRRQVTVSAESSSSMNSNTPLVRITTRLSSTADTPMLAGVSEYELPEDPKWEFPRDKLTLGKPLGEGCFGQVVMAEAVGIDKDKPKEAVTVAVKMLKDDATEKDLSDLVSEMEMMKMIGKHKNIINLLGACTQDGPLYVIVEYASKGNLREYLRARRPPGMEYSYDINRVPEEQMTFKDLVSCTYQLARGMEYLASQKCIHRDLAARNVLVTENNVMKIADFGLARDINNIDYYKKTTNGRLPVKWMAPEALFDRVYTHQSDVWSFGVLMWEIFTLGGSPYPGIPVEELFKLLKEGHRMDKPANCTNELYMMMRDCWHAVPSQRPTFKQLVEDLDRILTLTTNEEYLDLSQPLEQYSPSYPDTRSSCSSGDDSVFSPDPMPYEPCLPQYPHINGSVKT
Procedure: as §1

KIT = biological target: T15, KIT (Homo sapiens, UniProt P10721); assay: KdELECT binding constant; conditions: mean ± S.D. (n = 2)
T15 construct: purchased Eurofins DiscoverX Corporation
Procedure: as §1

[4] = 10000 nM, lower = stronger binding, read-out: % Control

For `NCC(N)C(=O)Nc1ccc(-c2nc3ccccc3s2)cc1` (stereo not drawn) [MBP-11901], the IC50 (MDA-MB-231) was 62 ± 6.5 µM, the “migration and invasion of tumor cells” value (HepG2 cells [1]) was “highly inhibited” and the colony formation (HepG2 cells [2]; HepG2, 5 μM) was “significant reduction”. The colony growth (HepG2 cells [2]; HepG2, high concentrations, compared with sorafenib) was “almost no colony growth was observed”, the “mitochondrial potential (JC-1)” value (HepG2 cells [3]) was “decrease in mitochondrial potential” and the “animals in which tumors had completely disappeared” value (Hep3B xenograft tumor) was 1 out of 6. The average tumor volume (Hep3B xenograft tumor; start about 300 mm^3, saline approx. 1400 mm^3) was “approximately 100 mm^3”, the remaining binding at 10 µM (FLT3(D835H)) was 33% and the remaining binding at 10 µM (FLT3(D835V)) was 1.6%. The remaining binding at 10 µM (FLT3(D835Y)) was 11%, the remaining binding at 10 µM (FLT3(K663Q)) was 7.5% and the remaining binding at 10 µM (FLT3(N841I)) was 20%. For the same compound, the remaining binding at 10 µM (FLT3- autoinhibited) was 19%, the remaining binding at 10 µM (FLT3; [4]) was 16% and the Kd (FLT3; FLT3, mean ± S.D. (n = 2)) was 0.295 ± 0.005 µM. The remaining binding at 10 µM (MAP4K2; [4]) was 8.6%, the Kd (MAP4K2; MAP4K2, mean ± S.D. (n = 2)) was 1.1 µM and the remaining binding at 10 µM (MEK5; [4]) was 3.3%. The Kd (MEK5; MEK5) was > 30 µM, the remaining binding at 10 µM (PDGFRβ; [4]) was 33% and the Kd (PDGFRβ; PDGFRβ, mean ± S.D. (n = 2)) was 4 ± 0.22 µM. For the same compound, the remaining binding at 10 µM (VEGFR2; [4]) was 30%, the Kd (VEGFR2; VEGFR2, mean ± S.D. (n = 2)) was 3.55 ± 0.25 µM and the Kd (EGFR) was > 30 µM. The Kd (FGFR1) was > 30 µM, the Kd (FGFR2) was > 30 µM and the Kd (KIT) was 3.85 ± 1.15 µM.

Reference: PMC9030223, “MBP-11901 Inhibits Tumor Growth of Hepatocellular Carcinoma through Multitargeted Inhibition of Receptor Tyrosine Kinases” (Cancers, 2022)
